# Measurements as given in ChEMBL document CHEMBL4665648, “Potent and selective inhibitors of receptor-interacting protein kinase 1 that lack an aromatic back pocket group” (Bioorg Med Chem Lett, 2019).
# Key:
# [1] = Lipophilicity, logD of compound at pH 7.4; type: physicochemical; conditions: buffer
# [2] = Kinetic solubility of compound at pH 7.4; type: physicochemical; conditions: buffer, read-out: Kinetic_solubility
# [3] = Inhibition of necroptosis in human HT-29 cells assessed as reduction in TNFalpha/BV6/zVAD-fmk-induced cell death incubated for 18 hrs by Cell Titer Glo luminescent cell viability assay; type: functional, cell-based; conditions: HT-29, 18 h
# [4] = biological target: T1, Receptor-interacting serine/threonine-protein kinase 1 (Homo sapiens, UniProt Q13546); test: Inhibition of recombinant human His/GST-tagged RIPK1 (2 to 257 residues) expressed in insect expression system incubated for 2 hrs by fluorescence polarization assay; conditions: read-out: Ki(app)
# T1 sequence (Q13546 whole entry): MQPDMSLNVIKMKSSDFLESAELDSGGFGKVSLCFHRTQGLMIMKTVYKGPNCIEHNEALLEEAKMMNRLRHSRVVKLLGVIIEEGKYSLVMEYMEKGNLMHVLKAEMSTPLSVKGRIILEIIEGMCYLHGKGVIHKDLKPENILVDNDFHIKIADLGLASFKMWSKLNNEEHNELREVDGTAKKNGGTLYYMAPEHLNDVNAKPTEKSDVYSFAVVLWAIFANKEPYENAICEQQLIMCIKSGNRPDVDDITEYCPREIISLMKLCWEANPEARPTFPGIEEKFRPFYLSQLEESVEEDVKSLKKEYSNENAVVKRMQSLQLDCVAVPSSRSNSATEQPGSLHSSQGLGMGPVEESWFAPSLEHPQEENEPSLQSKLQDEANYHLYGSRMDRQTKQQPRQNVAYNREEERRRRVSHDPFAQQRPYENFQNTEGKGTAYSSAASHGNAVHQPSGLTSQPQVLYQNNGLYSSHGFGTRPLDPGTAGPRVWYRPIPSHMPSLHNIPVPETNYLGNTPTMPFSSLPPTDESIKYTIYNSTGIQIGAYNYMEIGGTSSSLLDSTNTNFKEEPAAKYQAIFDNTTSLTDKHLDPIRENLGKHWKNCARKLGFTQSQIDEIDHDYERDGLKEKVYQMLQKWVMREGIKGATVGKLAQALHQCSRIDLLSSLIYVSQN
SMILES,logD [1],solubility kinetic [2] [µM],Ki [4] [nM],EC50 [3] [nM]
CN1C(=O)[C@@H](NC(=O)c2n[nH]c3c2CCC2(CC2)C3)COc2ccccc21,–,–,–,> 20000
CN1C(=O)[C@@H](NC(=O)c2n[nH]c3c2CCCC3)COc2ccccc21,–,–,–,15000
"CN1C(=O)[C@@H](NC(=O)c2n[nH]c3c2C2CC2CC3)COc2ccccc21 (single isomer, unassigned; diastereomer 1)",–,–,–,6900
CN1C(=O)[C@@H](NC(=O)c2n[nH]c3c2C[C@H](C(C)(C)C)CC3)COc2ccccc21,–,–,–,290
CN1C(=O)[C@@H](NC(=O)c2n[nH]c3c2CC(n2cccn2)CC3)COc2ccccc21 (mixture of isomers),–,–,–,4100
CN1C(=O)[C@@H](NC(=O)c2n[nH]c3c2CC2CC2C3)COc2ccccc21 (mixture of isomers),–,–,–,7000
CN1C(=O)[C@@H](NC(=O)c2n[nH]c3c2CC(c2ccccc2)CC3)COc2ccccc21 (mixture of isomers),–,–,–,520
C[C@H]1CCc2[nH]nc(C(=O)N[C@H]3COc4ccccc4N(C)C3=O)c2C1,–,–,–,400
C[C@@H]1CCc2[nH]nc(C(=O)N[C@H]3COc4ccccc4N(C)C3=O)c2C1,–,–,–,130

# Continued, in another order:
logD [1],solubility kinetic [2] [µM],Ki [4] [nM],SMILES,EC50 [3] [nM]
1.6,164,–,CN1C(=O)[C@@H](NC(=O)c2nnc3ccc(C(F)(F)C(F)(F)F)nn23)COc2ccccc21,130
–,–,42,CN1C(=O)[C@@H](NC(=O)c2n[nH]c3c2CC(C)(C)CC3)COc2ccccc21,170
3.3,59,–,CN1C(=O)[C@@H](NC(=O)c2n[nH]c3ncc(C(F)(F)F)cc23)COc2ccccc21,580
–,–,7,CN1C(=O)[C@@H](NC(=O)c2n[nH]c3c2C[C@H](C(F)(F)F)CC3)COc2ccccc21,43
1.5,99,–,CN1C(=O)[C@@H](NC(=O)c2nnn3c2C[C@H](C(F)(F)F)CC3)COc2ccccc21,210
1,160,–,CN1C(=O)[C@@H](NC(=O)c2nnc3ccc(C(F)(F)F)nn23)COc2ccccc21,2400
–,–,5,CN1C(=O)[C@@H](NC(=O)c2ncn3ccc(C(F)(F)F)cc23)COc2ccccc21,12
–,–,5,CN1C(=O)[C@@H](NC(=O)c2n[nH]c3ccc(C(F)(F)F)cc23)COc2ccccc21,28
–,–,> 10000,CN1C(=O)[C@@H](NC(=O)c2n[nH]c3c2CCC(C)(C)C3)COc2ccccc21,> 20000
3.5,3.4,–,CC(C)c1cnc2[nH]nc(C(=O)N[C@H]3COc4ccccc4N(C)C3=O)c2c1,390
–,–,63,CN1C(=O)[C@@H](NC(=O)c2nn(C)c3c2C[C@H](C(F)(F)F)CC3)COc2ccccc21,500
2,57.1,–,CN1C(=O)[C@@H](NC(=O)c2nnn3c2CC(C(F)(F)C(F)(F)F)CC3)COc2ccccc21 (mixture of isomers),64
–,–,> 10000,CN1C(=O)[C@@H](NC(=O)c2nnc[nH]2)COc2ccccc21,> 20000
